The record followed here is US9707244B2, “Compositions and methods for treating conditions that affect epidermis” (Gencia Corporation, priority 2013, dated 2017).

Assay [1] concerns AG11073 untransformed human skin fibroblasts from a person. As to the kind of experiment: Cellular senescence assay (SA-β-Gal fluorometric), aged fibroblasts. Type of assay: cell-based. The note with it: 5 nM to 200 nM, p<0.01 for 5-100 nM, p<0.05 for 200 nM. From the text: (§1) Senescent cells show common biochemical markers such as expression of an acidic senescence-associated β-galactosidase (SA-β-Gal) activity. While senescence has been characterized primarily in cultured cells, there is also evidence that it occurs in vivo. Cells expressing markers of senescence such as SA-β-Gal have been identified in normal tissues. To determine whether modified Mitocreatine analogues may influence the scenesence in aged fibroblasts, a 96-well Cellular Senescence Assay (SA-β-Gal Fluorometric Format) Cat # CBA-231 Cell Biolabs, Inc. was employed and buffers referenced were supplied by the manufacturer and in some cases freshly prepared prior to usage according to the manufacturer's instructions.
(§2) The cells utilized were Human Skin Fibroblast acquired from Coriell Cell Repository. The cell line AG11073 is untransformed human skin fibroblasts from a person. The primary culture was initiated from explants of a 2 mm-punch biopsy. The cell line AG16409 was untransformed human skin fibroblasts from a person.
(§3) Cells were grown in a 96 well plate. […]
(§4) 50 μL, of the reaction mixture was removed to a 96-well plate suitable for fluorescence measurement. The reaction was stopped by adding 200 μL of Stop solution and fluorescence was measured with a fluorescence plate reader (PHERA Star FS from BMG Labtech) at 360 nm (Excitation)/465 nm (Emission).

The test system of assay [2] is AG11073 senescent fibroblasts. As to the kind of experiment: Intracellular collagen type I immunolabeling and image analysis. Format: cell-based, human. How it is done:
The cell line AG11073 senescent fibroblasts, at passage 20, were plated onto a multi-chambered glass slide. Dulbecco's Modified Eagle Medium (DMEM) supplemented with the appropriate serum and antibiotics and either containing vehicle or 25 nM of Mitocreatine was added to each chamber. Cells were treated once daily with fresh media containing either vehicle or 25 nM mitocreatine for seven days. At the completion of the treatment period, the cells were washed with warm PBS and fixed with ice cold acetone. The chambers were removed and the slide immunoprobed with an anti-collagen type I antibody (ab292, Abcam). An Alexa-488 secondary antibody was used for detection and DAPI used to stain nuclei.
The cells utilized were human skin fibroblast acquired from Coriell Cell Repository. The cell line AG11073 is untransformed human skin fibroblasts from a person. The primary culture was initiated from explants of a 2 mm-punch biopsy. The cell line AG16409 is untransformed human skin fibroblasts from a person. Aged senescent fibroblasts (Coriell AG11073) were cultured for 7 days with either vehicle or 25 nM mitocreatine. Cells were probed with anti-collagen type I antibody (green) and DAPI (blue) for nuclei to assess changes in collagen type I expression.
Cell area and mean pixel intensity of the green fluorescence was acquired using Image J software. Image analysis supports an increase in cell area as well as an increase in intracellular collagen type I.
Image data from the immunolabeling of collage type I study was also used to quantify the amount of collagen immunolabeling in the AG11073 senescent fibroblast treated with 25 nM Mitocreatine in vehicle for seven days.

A further assay has as its system C57BL/6J mice. Put plainly: Forced treadmill endurance test. Format: in vivo. The conditions noted are these: 10, 20, 30 mg/kg p.o. once daily for 30 days. The method, then: Group Setting: C57BL/6J mice were randomly assigned into five groups with different treatment started with balanced full-paw and fore-paw grip strength. Seventy five female mice were dosed at 4 PM for 30 consecutive days (qd). • 1. Vehicle (p.o. via oral gavage once daily for 30 days, n=15) • 2. Creatine (300 mg/kg, p.o. via oral gavage once daily for 30 days, n=15) • 3. Mitocreatine (10 mg/kg, p.o. via oral gavage once daily for 30 days, n=15) • 4. Mitocreatine (20 mg/kg, p.o. via oral gavage once daily for 30 days, n=15) • 5. Mitocreatine (30 mg/kg, p.o. via oral gavage once daily for 30 days, n=15). 75 mice (group 1-5) were tested on the treadmill with a previously optimized protocol as described below. The mice were habituized to the treadmill at two separate occasions, with a habituation protocol. Mice were allowed to acclimate to the testing room for at least 30 min before tested. Mice were initially placed on a treadmill running at 5 m/min for 2 minutes. The treadmill belt was set horizontally. The treadmill speed was then increased to 20 m/min in […] at steps of 5 m/min in every 10 sec with the shocking grid set at 0.2 mA. Mice were allowed to run for 20 minutes. […] The total running time until exhaustion was recorded. […] Data were expressed as Mean±S.E.M. and analyzed with one-way ANOVA followed by Bonferroni test compared to vehicle group, *P<0.05, **P<0.01 (FIG. 32).

Assay [3] deals with AG16409 untransformed human skin fibroblasts from a person. Put plainly: Cellular senescence assay (SA-β-Gal fluorometric), young fibroblasts. Type of assay: cell-based. The conditions noted are these: increasing concentration.
Text: as §1, §2, §3, §4

The subject of assay [4] is Human hepatocellular liver carcinoma cell line HepG2. Put plainly: Survival of HepG2 cells treated with chemotherapeutic agents (DAPI fluorescence). The note with it: Cetuximab, Gemcitabine or Temozolomide; 48 hours. Type of assay: cell-based. The method, then:
(§5) Fibroblasts were incubated with increasing amounts of Mitocreatine and certain anti-neoplastic agents, such as Cetuximab, Gemcitabine and Temozolomide. After incubation, cells were washed and the number of adherent (i.e. surviving) cells was assessed by DAPI fluorescence, which was measured utilizing a plate reader (PHERA Star FS from BMG Labtech). For these experiments two kinds of cells were used. Either the Human hepatocellular liver carcinoma cell line HepG2, or the BJ human fibroblast cells, which are established from normal human foreskin. […] Mitocreatine and the antineoplastic agent were added simultaneously.

Assay [5] relates to BJ human fibroblast cells. Put plainly: Survival of fibroblasts treated with chemotherapeutic agents (DAPI fluorescence). Format: cell-based. The note with it: 48 hours, added simultaneously. The method, then:
as §5

SMILES strings stand for the structures. Entries after “also recorded” stand apart in the source; their conditions may differ.

On to `CN(CC(=O)NCCC[P+](c1ccccc1)(c1ccccc1)c1ccccc1)C(=N)N.Cl.[Cl-]` [Mitocreatine, N^2-[ammonio(imino)methyl]-N^2-methyl-N-[3-(triphenylphosphonio)propyl] glycinamide dichloride], for which the “β-galactosidase expression/activity (senescence marker)” value in assay [1] is reported as “statistically significant decrease; also recorded: retards senescence”; in assay [3] it was “this decrease failed to reach statistical significance; also recorded: statistically insignificant decrease”. Besides, the “induction in collagen type I levels” value in assay [2] (25 nM for seven days, fluorescent intensity per area unit normalized to untreated cells) amounted to 7 fold. The “intracellular collagen type I” value in assay [2] (25 nM once daily for seven days) is recorded as “significant increase in intracellular collagen; also recorded: significant increase in collagen type I expression”. In assay [2] (25 nM once daily for seven days, senescent cells), the “cell numbers / cell proliferation” value is “significant increase in cell numbers; also recorded: induced cell proliferation”. In the assay with C57BL/6J mice, the “endurance (total running time)” value is on record as “Increases Endurance”. Besides, the “survival of HepG2 cells” value in assay [4] was “not improve the survival”. Besides, the survival of fibroblasts entry in assay [5] (Gemcitabine (80 μM)), in assay [5] (Temozolomide (1 mM)) and in assay [5] (high concentrations of Cetuximab) was “improved the survival” throughout.
